In patent US10968186B2, “Ascochlorin derivative and use thereof as AMPK activator” (priority 2016, dated 2021):
Converted amounts (≈) assume the structure as drawn. Like-named read-outs stand apart in the source and are kept apart here.

Experiments:
[1] = Solubility in pH4.0 and pH7.4 phosphate buffer solution; type: physicochemical; conditions: phosphate buffer (PBS), aqueous buffer, kinetic from dmso stock, 2 hr incubation, 25° C.
Protocol: 1) Preparation of Stock Solutions
Diclofenac was used as positive control in the assay.
2) Procedures for Solubility Determination
This study was performed in duplicate. […] The filtered samples were diluted with methanol.
3) Samples Analyzed by LC-MS/MS

[2] = Stability against human liver microsomes; type: in vitro ADME; conditions: 2 μM compound
Protocol: (§1) Determination of Stability Against Mouse and Human Mirosomes
(§2) Pooled human liver microsomes (Cat. 452161; Lot. 23418) were purchased from Corning and pooled male mouse liver microsomes (Cat. M1000; Lot. 1210302) were purchased from Xenotech. Microsomes were stored at −80° C. prior to use. 40 μL of ultra-pure H2O was used instead of NADPH solution in the negative control. The negative control was used to exclude the misleading factor that was resulted from instability of chemical itself. Samples with NADPH were prepared in duplicate. Negative controls were prepared in singlet.
(§3) The reaction was started with the addition of 4 μL of 200 μM compound solution to each master solution to get the final concentration of 2 μM. Verapamil was used as positive control in the assay. Aliquots of 50 μL were taken from the reaction solution at 0, 15, 30, 45 and 60 min. The reaction was stopped by addition of 4 volumes of cold acetonitrile with IS (200 nM imipramine, 200 nM labetalol and 2 μM ketoprofen). Samples were centrifuged at 3,220 g for 40 minutes. Aliquot of […] of the supernatant was mixed with 90 μL of ultra-pure H2O and then was used for LC-MS/MS analysis. Results are shown in Table 3 by indicating remaining % of the test compound after 60 minutes incubation with liver microsomes from human and mouse in the presence of NADPH.

[3] = Stability against mouse liver microsomes; type: in vitro ADME; conditions: mouse LM, 2 μM compound, 60 min, NADPH
Protocol: as §1, §2, §3

A549 = experiment: Anti-proliferative activity, CellTiterGlo assay, A549; type: cell-based; conditions: Homo sapiens; A549, 96 hrs incubation; read-out: Antiproliferative activities IC50, A549
Protocol: (§4) The anti-proliferative activities of the compounds against 6 human cancer cell lines were determined by CellTiterGlo assay kit. All cells were obtained from ATCC and cultured as recommended by the vendor. Cells were assayed in exponential growth phase. Sample solution was prepared by 3-fold serial dilution from 30 mM stock for 10 doses in DMSO. Antiproliferative activities were measured by CellTiterGlo assay kit according to the protocol after cells were incubated for 96 hrs in a 37° C., 5% CO2 incubator.
(§5) On the 4th day of incubation, i) 15 μl reagent (CelltiterGlo assay kit) was added per well and plate was shaken (avoiding light) for 2 mins on a plate shaker, ii) the plate was kept (avoiding light) in room temperature for 30 min, and iii) the luminescence value was recorded by Multiplate reader.

HT29 = experiment: Anti-proliferative activity, CellTiterGlo assay, HT29; type: cell-based; conditions: Homo sapiens, HT-29; HT29, 96 hrs incubation; read-out: Antiproliferative activities IC50, HT29
Protocol: as §4, §5

BxPC-3 = experiment: Anti-proliferative activity, CellTiterGlo assay, BxPC-3; type: cell-based; conditions: Homo sapiens; BxPC-3, 96 hrs incubation; read-out: Antiproliferative activities IC50, BxPC-3
Protocol: as §4, §5

LNCaP = experiment: Anti-proliferative activity, CellTiterGlo assay, LNCaP; type: cell-based; conditions: Homo sapiens, 96 hrs incubation, read-out: Antiproliferative activities IC50, LNCaP
Protocol: as §4, §5

MDA-MB-231 = experiment: Anti-proliferative activity, CellTiterGlo assay, MDA-MB-231; type: cell-based; conditions: Homo sapiens; MDA-MB-231, 96 hrs incubation; read-out: Antiproliferative activities IC50, MDA-MB-231
Protocol: as §4, §5

U87-MG = experiment: Anti-proliferative activity, CellTiterGlo assay, U87-MG; type: cell-based; conditions: Homo sapiens, U-87 MG, 96 hrs incubation, read-out: Antiproliferative activities IC50, U87-MG
Protocol: as §4, §5

[4] = system: HFD-STZ C57BL/6J mice model; experiment: In vivo efficacy in HFD-STZ C57BL/6J mice model
Protocol: In Vivo Efficacy in HFD-STZ C57BL/6J Mice Model
Diet induced obesity model establishment:
C57BL/6J mice were fed with high fat diet (Research Diets, D12492) for 64 days, and streptozotocin (10 mg/kg) was given orally on day 22 and day 29. Compound treatment was done from day 36 to day 63.
Based on the animal's body weight and oral glucose tolerance test (OGTT) on week 5, mice were randomly assigned to respective groups using a computer-generated randomization procedure.
Blood glucose level was measured with the blood from tail vein every 2nd week by using Accu-Chek Aviva System.
Blood Chemistry Analysis:
Blood samples were obtained from collection on Day 49 and 65, the samples were immediately processed by centrifugation at 4° C., 4,000 g for 15 minutes, and then they were transferred into a new test tube. Lipid profile and full panel blood bio-chemistry parameters were measured by using TOSHIBA TBA-40FR automated biochemical analyzer.

[5] = pH 4.0 phosphate buffer solution, read-out: Solubility, pH 4.0 PBS
[6] = pH 7.4 phosphate buffer solution, read-out: Solubility, pH 7.4 PBS
[7] = OGTT assay, versus group treated with vehicle
[8] = once a day oral treatment for 28 days at 0.25 to 16 mg/kg

Structure (SMILES)	solubility at 2 h [1, 5]	solubility at 2 h [1, 6]	Liver microsome stability remaining % after 60 min incubation with NADPH, human LM [2]	Liver microsome stability remaining % after 60 min incubation with NADPH, mouse LM [3]	IC50 (A549)	IC50 (HT29)	IC50 (BxPC-3)	IC50 (LNCaP)	IC50 (MDA-MB-231)	IC50 (U87-MG)	OGTT: blood glucose level after 2 hours of glucose administration, lower than control group [4, 7]	OGTT: glucose AUC lower than control group [4, 7]	decrease of HbA1C level [4, 8]	decrease of blood glucose level [4, 8]	melting point
CO/N=C/c1c(C)c(Cl)c(OC)c(C/C=C(C)/C=C/[C@@]2(C)[C@H](C)CC/C(=N\OCCN3CCN(C)CC3)[C@@H]2C)c1O [Compound 17, 4-chloro-3-methoxy-6-[(1E)-(methoxyimino)methyl]-5-methyl-2-[(2E,4E)-3-methyl-5-[(1R,2R,3E,6R)-1,2,6-trimethyl-3-[[2-(4-methylpiperazin-1-yl)ethoxy]imino]cyclohexyl]penta-2,4-dien-1-yl]phenol]	39 µM (≈ 23 µg/mL)	0.04 µM (≈ 0.0236 µg/mL)	76%	55%	6.8 µM	5.2 µM	1.7 µM	4.1 µM	5 µM	4.5 µM					
CCNC1CC[C@@H](C)[C@](C)(/C=C/C(C)=C/Cc2c(O)c(C=O)c(C)c(Cl)c2OC)[C@H]1C (stereo partly drawn) [Compound 20, 3-chloro-5-[(2E,4E)-5-[(1R,2R,6R)-3-(ethylamino)-1,2,6-trimethylcyclohexyl]-3-methylpenta-2,4-dien-1-yl]-6-hydroxy-4-methoxy-2-methylbenzaldehyde]	186 µM (≈ 83.3 µg/mL)	0.32 µM (≈ 0.143 µg/mL)			4.8 µM	2.7 µM	2.3 µM	1.9 µM	4.1 µM	2.3 µM					
CO/N=C/c1c(C)c(Cl)c(OC)c(C/C=C(C)/C=C/[C@@]2(C)[C@H](C)CC/C(=N\OCC(=O)O)[C@@H]2C)c1O [Compound 19, 2-([[(1E,2R,3R,4R)-3-[(1E,3E)-5-[3-chloro-6-hydroxy-2-methoxy-5-[(1E)-(methoxyimino)methyl]-4-methylphenyl]-3-methylpenta-1,3-dien-1-yl]-2,3,4-trimethylcyclohexylidene]amino]oxy)acetic Acid]	148 µM (≈ 77.1 µg/mL)	23.7 µM (≈ 12.3 µg/mL)	94%	89%	22.3 µM	22.5 µM	17 µM	14.6 µM	47.4 µM	20.4 µM	30%	25%	−31%	−68%	
CCNC1CC[C@@H](C)[C@](C)(/C=C/C(C)=C/Cc2c(O)c(/C=N/OC)c(C)c(Cl)c2OC)[C@H]1C (stereo partly drawn) [Compound 21, 4-chloro-2-[(2E,4E)-5-[(1R,2R,6R)-3-(ethylamino)-1,2,6-trimethylcyclohexyl]-3-methylpenta-2,4-dien-1-yl]-3-methoxy-6-[(1E)-(methoxyimino)methyl]-5-methylphenol]	168 µM (≈ 80.2 µg/mL)	0.003 µM (≈ 0.00143 µg/mL)	100%	80%	5.3 µM	5 µM	1.7 µM	3.8 µM	4.3 µM	3.1 µM					
COc1c(Cl)c(C)c(C=O)c(O)c1C/C=C(C)/C=C/[C@@]1(C)[C@H](C)CC[C@](C)(O)[C@@H]1C [Compound 1, 3-chloro-6-hydroxy-5-[(2E,4E)-5-[(1R,2R,3S,6R)-3-hydroxy-1,2,3,6-tetramethylcyclohexyl]-3-methylpenta-2,4-dien-1-yl]-4-methoxy-2-methylbenzaldehyde]															42 to 43 °C
COc1c(Cl)c(C)c(C=O)c(O)c1C/C=C(C)/C=C/[C@@]1(C)[C@H](C)CCC(NC2CC2)[C@@H]1C (stereo partly drawn) [Compound 22, 3-chloro-5-[(2E,4E)-5-[(1R,2R,6R)-3-(cyclopropylamino)-1,2,6-trimethylcyclohexyl]-3-methylpenta-2,4-dien-1-yl]-6-hydroxy-4-methoxy-2-methylbenzaldehyde]	29 µM (≈ 13.3 µg/mL)	0.01 µM (≈ 0.0046 µg/mL)			1.9 µM	3.8 µM	2.7 µM	1.1 µM	6 µM	3.2 µM					
CO/N=C/c1c(C)c(Cl)c(OC)c(C/C=C(C)/C=C/[C@@]2(C)[C@H](C)CC/C(=N\OCCN(C)C)[C@@H]2C)c1O [Compound 15, 4-chloro-2-[(2E,4E)-5-[(1R,2R,3E,6R)-3-[[2-(dimethylamino)ethoxy]imino]-1,2,6-trimethylcyclohexyl]-3-methylpenta-2,4-dien-1-yl]-3-methoxy-6-[(1E)-(methoxyimino)methyl]-5-methylphenol]	54 µM (≈ 28.8 µg/mL)	0.29 µM (≈ 0.155 µg/mL)	88%	79%	6.7 µM	7 µM	1.7 µM	4.2 µM	4.8 µM	4.4 µM					
CC(/C=C/[C@@]1(C)[C@H](C)CCC(NC2CC2)[C@@H]1C)=C\Cc1c(O)c(C=O)c(C)c(Cl)c1OCF (stereo partly drawn) [Compound 13, 3-chloro-5-[(2E,4E)-5-[(1R,2R,6R)-3-(cyclopropylamino)-1,2,6-trimethylcyclohexyl]-3-methylpenta-2,4-dien-1-yl]-4-(fluoromethoxy)-6-hydroxy-2-methylbenzaldehyde]	18 µM (≈ 8.6 µg/mL)	0.01 µM (≈ 0.00478 µg/mL)			2 µM	3.6 µM	2.2 µM	0.8 µM	5.3 µM	3 µM					
CC(/C=C/[C@@]1(C)[C@H](C)CC/C(=N\O)[C@@H]1C)=C\Cc1c(O)c(/C=N/O)c(C)c(Cl)c1OCF [Compound 4, 4-chloro-3-(fluoromethoxy)-2-[(2E,4E)-5-[(1R,2R,3E,6R)-3-(hydroxyimino)-1,2,6-trimethylcyclohexyl]-3-methylpenta-2,4-dien-1-yl]-6-[(1E)-(hydroxyimino)methyl]-5-methylphenol]			67%	47%	4.3 µM	6.4 µM	11.4 µM	4.2 µM	5.1 µM	9.1 µM					
COc1c(Cl)c(C)c(/C=N/O)c(O)c1C/C=C(C)/C=C/[C@@]1(C)[C@H](C)CCC(C)(O)[C@@H]1C (stereo partly drawn) [Compound 7, (E)-3-chloro-6-hydroxy-5-((2E,4E)-5-((1R,2R,6R)-3-hydroxy-1,2,3,6-tetramethylcyclohexyl)-3-methylpenta-2,4-dien-1-yl)-4-methoxy-2-methylbenzaldehyde oxime]			71%	71%	6.5 µM	10 µM	12.8 µM	7.2 µM	6.8 µM	13.1 µM					
